A short description of series [1]: wn = mass fraction of the nth substance listed. The note with it: 101.3 kPa, Liquid, Vibrating tube method.
Series [2] in a line: refractive index (Na D-line) (dimensionless); wn = mass fraction of the nth substance listed. The note with it: 101.3 kPa, Liquid, Standard Abbe refractometry.

Structures are written as SMILES. Numbers after ± are expanded uncertainties.

Broadly, the mass density is the mass of a sample divided by its volume. Broadly, the refractive index is a measure of how strongly the sample bends light. `[Cl-].[Cs+]` [cesium chloride] + O: the mass density was found to be 1923.9 ± 3.6 kg/m3 in series [1] (298.15 K, w1 = 0.6538); 1946.1 ± 3.6 kg/m3 in series [1] (308.15 K, w1 = 0.6693); 1980.8 ± 3.7 kg/m3 in series [1] (318.15 K, w1 = 0.6788). Besides, the refractive index in series [2] (298.15 K, w1 = 0.6538) was 1.4196 ± 0.002; in series [2] (308.15 K, w1 = 0.6693) it was 1.4204 ± 0.002; in series [2] (318.15 K, w1 = 0.6788) it was 1.4218 ± 0.002.
Consider `[Cl-].[Na+]` [sodium chloride] + O, for which the mass density in series [1] (298.15 K, w1 = 0.263) stood at 1197.8 ± 3.1 kg/m3; in series [1] (308.15 K, w1 = 0.2666), 1193.6 ± 3.1 kg/m3; in series [1] (318.15 K, w1 = 0.2669), 1188.9 ± 3.1 kg/m3. Moreover, the refractive index in series [2] (298.15 K, w1 = 0.263) was 1.3796 ± 0.002; in series [2] (308.15 K, w1 = 0.2666), 1.3781 ± 0.002; in series [2] (318.15 K, w1 = 0.2669), 1.3766 ± 0.002.
